Biological target: human IDO1 protease (Homo sapiens (Human), UniProt P14902)
Experiment: Inhibitory activity against human IDO1 protease (absorbance test method)
Assay type: biochemical
Conditions: IDO1 (His-tag) enzyme, absorbance at 320 nm
Description: 1) Experimental Materials and Apparatus: • IDO1 (His-tag) enzyme (BPS Bioscience) • L-tryptophan (Sigma) • Methylene blue (Sigma) • Catalase originated from the liver of cattle (Sigma) • L-ascorbic acid (Sigma) • Glycerol (Sigma) • Potassium dihydrogen phosphate solution (Sigma) • Tween 20 (Sigma) • Automatic sampling platform Liquid handler (Bravo & Echo) • Microplate Reader SpectraMax M5e (Molecular Devices)
2) Test Method of Compounds: The Compounds are Determined by Absorbance Test Method:
The tested compounds and the reference compounds are dissolved in DMSO to prepare a high concentration of storage solution. The stock solution of reference compound was diluted with DMSO to prepare a 100× solution. In the first column of the working plate, 8 μL above tested compounds and 8 μL 100× reference compound were respectively added as the highest concentration, and then the highest concentrations were subjected to three times dilution to obtain 11 concentrations and prepare 100× solution. 0.5 μL solution was transferred from the above plate to the detection plate. […]. For HPE and ZPE control wells, 0.5 μL 100% DMSO was added.
25 μL 2×IDO1 (His-tag) enzyme solution (containing L-ascorbic acid, methylene blue, and catalase) was added to each well. 25 μL reaction solution without IDO1 (His-tag) enzyme was added into HPE control well. The test plate was centrifugated at 1000 rpm for 1 minute to mix well. Then, the test plate was incubated at room temperature for 30 minutes. 25 μL above 2× substrate (L-tryptophan) solution was added to each well. The test plate was centrifugated at 1000 rpm for 1 minute to mix well. The detection plate was placed on ELISA (SpectraMax M5e), the temperature was set at 25° C., and the absorbance (OD value) was measured at 320 nm every 10 minutes till 60 minutes.
Calculating the increase ratio of absorbance: the slope of the absorbance increase curve from 10 min to 60 min is derived from SpectralMax M5e. The inhibition coefficient of compound was calculated: the inhibition ratio of compound=(the absorbance increase ratio of ZPE control well−the absorbance increase ratio of compound well)/(the absorbance increase ratio of ZPE control well−the absorbance increase ratio of HPE control well)×100. Results was analyzed by Prism 5.0.

Chain of human IDO1 protease (P14902 whole entry): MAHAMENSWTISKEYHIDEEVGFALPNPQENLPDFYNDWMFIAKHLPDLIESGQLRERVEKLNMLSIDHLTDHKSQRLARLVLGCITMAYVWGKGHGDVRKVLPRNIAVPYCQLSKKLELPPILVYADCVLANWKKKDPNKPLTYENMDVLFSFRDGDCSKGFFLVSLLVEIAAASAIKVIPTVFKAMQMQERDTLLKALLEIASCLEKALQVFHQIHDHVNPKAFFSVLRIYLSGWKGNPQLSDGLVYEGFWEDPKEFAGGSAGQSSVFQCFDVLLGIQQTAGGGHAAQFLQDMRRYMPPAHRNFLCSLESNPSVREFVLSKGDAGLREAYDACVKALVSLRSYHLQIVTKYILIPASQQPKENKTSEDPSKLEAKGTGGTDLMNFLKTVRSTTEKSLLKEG

SMILES	IC50 [nM]
O/N=C(\Nc1ccc(F)c(Br)c1)c1nonc1NCC1CNC1 [Compound 2, 4-((Azetidin-3-ylmethyl)amino)-N-(3-bromo-4-fluorophenyl)-N′-hydroxyl-1,2,5-oxadiazole-3-formamidine]	182
CN(C)S(=O)(=O)N1CCC(CNc2nonc2/C(=N/O)Nc2ccc(F)c(Br)c2)C1 (centres unmarked) [Compound 23, (Z)—N-(3-bromo-4-fluorophenyl)-4-(((1-(N,N-methylsulfonyl)pyrrolidinyl-3-yl)methyl)amino)-N′-hydroxyl-1,2,5-oxadiazol-3-carboxyoximide]	183
CS(=O)(=O)N1CCC(CNc2nonc2/C(=N/O)Nc2ccc(F)c(Br)c2)C1 (centres unmarked) [Compound 20, N-(3-bromo-4-fluorophenyl)-N′-hydroxyl-4-(((1-methylsulfonylazacyclopentan-3-yl)methyl)amino)-1,2,5-oxadiazole-3-formamidine]	79
CC(C)(C)OC(=O)N1CCC(CNc2nonc2/C(=N/O)Nc2ccc(F)c(Br)c2)C1 (centres unmarked) [Compound 5]	276
CC(C)(C)OC(=O)N1CC(CNc2nonc2/C(=N/O)Nc2ccc(F)c(Br)c2)C1 [Compound 3, t-Butyl 3-(((4-(N-(3-bromo-4-fluorophenyl)-N′-hydroxylformamidinyl)-1,2,5-oxadiazole-3-yl)amino)methyl)azetidin-1-formate]	430
NS(=O)(=O)N1CCCC1CCNc1nonc1/C(=N/O)Nc1ccc(F)c(Br)c1 (centres unmarked) [Compound 16, N-(3-bromo-4-fluorophenyl)-N′-hydroxyl-4-((2-(1-sulfamoylazacyclopentan-2-yl)ethyl)amino)-1,2,5-oxadiazole-3-formamidine]	151
NS(=O)(=O)N1CCOC(CNc2nonc2/C(=N/O)Nc2ccc(F)c(Br)c2)C1 (centres unmarked) [Compound 11, N-(3-bromo-4-fluorophenyl)-N′-hydroxyl-4-(((4-sulfamoylmorpholin-2-yl)methyl)amino)-1,2,5-oxadiazole-3-formamidine]	206
O=S(=O)(C1CC1)N1CC(CNc2nonc2/C(=N/O)Nc2ccc(F)c(Br)c2)C1 [Compound 86, (Z)—N-(3-Bromo-4-fluorophenyl)-4-(((1-(cyclopropylsulfonyl)azido-3-yl)methyl)amino)-N′-hydroxyl-1,2,5-oxadiazol-3-carboxyoximide]	167
NS(=O)(=O)N1CCCCC1CNc1nonc1/C(=N/O)Nc1ccc(F)c(Br)c1 (centres unmarked) [Compound 14, N-(3-bromo-4-fluorophenyl)-N′-hydroxyl-4-(((1-sulfamoylazacyclohexane-2-yl)methyl)amino)-1,2,5-oxadiazole-3-formamidine]	279
CS(=O)(=O)N1CC(CNc2nonc2C(=NO)Nc2ccc(F)c(Br)c2)C1 [Compound 85]	115
NS(=O)(=O)N1CC(O)(CNc2nonc2C(=NO)Nc2ccc(F)c(Br)c2)C1 [Compound 92]	64
NS(=O)(=O)N1CCC(CCNc2nonc2/C(=N/O)Nc2ccc(F)c(Br)c2)CC1 [Compound 19, N-(3-bromo-4-fluorophenyl)-N′-hydroxyl-4-((2-(1-sulfamoylazacyclohexane-4-yl)ethyl)amino)-1,2,5-oxadiazole-3-formamidine]	119
CN(C)C(=O)C(=O)N1CC(CNc2nonc2C(=NO)Nc2ccc(F)c(Br)c2)C1 [Compound 89]	183
NS(=O)(=O)N1CCC(CNc2nonc2/C(=N/O)Nc2ccc(F)c(Br)c2)CC1 [Compound 18, N-(3-bromo-4-fluorophenyl)-N′-hydroxyl-4-(((1-sulfamoylazacyclohexane-4-yl)methyl)amino)-1,2,5-oxadiazole-3-formamidine]	114
O=S(=O)(C1CC1)N1CCC(CNc2nonc2/C(=N/O)Nc2ccc(F)c(Br)c2)C1 (centres unmarked) [Compound 21, N-(3-bromo-4-fluorophenyl)-N′-hydroxyl-4-(((1-cyclopropylsulfonylazacyclopentan-3-yl)methyl)amino)-1,2,5-oxadiazole-3-formamidine]	141
NS(=O)(=O)N1CCCC(CNc2nonc2/C(=N/O)Nc2ccc(F)c(Br)c2)C1 (centres unmarked) [Compound 10, N-(3-bromo-4-fluorophenyl)-N′-hydroxyl-4-(((1-sulfamoylpiperidin-3-yl)methyl)amino)-1,2,5-oxadiazole-3-formamidine]	254
NS(=O)(=O)N1CCC(COc2nonc2/C(=N/O)Nc2ccc(F)c(Br)c2)C1 (centres unmarked) [Compound 27, (Z)—N-(3-Bromo-4-fluorophenyl)-N′-hydroxyl-4-((1-sulfamoylpyrrolidin-3-yl)methoxyl)-1,2,5-oxadiazol-3-formamidine]	628
O/N=C(\Nc1ccc(F)c(Br)c1)c1nonc1NCC1CCNC1 (centres unmarked) [Compound 6, N-(3-Bromo-4-fluorophenyl)-N′-hydroxyl-4-((azacyclopentan-3-ylmethyl)amino)-1,2,5-oxadiazole-3-formamidine]	88
CN(C)S(=O)(=O)N1CC(CNc2nonc2C(=NO)Nc2ccc(F)c(Br)c2)C1 [Compound 81]	142
NS(=O)(=O)N1CCC1CNc1nonc1/C(=N/O)Nc1ccc(F)c(Br)c1 (centres unmarked) [Compound 12, N-(3-Bromo-4-fluorophenyl)-N′-hydroxyl-4-(((1-sulfamoylazetidine-2-yl)methyl)amino)-1,2,5-oxadiazole-3-formamidine]	133
NS(=O)(=O)N1CCC(CNc2nonc2/C(=N/O)Nc2ccc(F)c(Br)c2)C1 (centres unmarked) [Compound 7, N-(3-bromo-4-fluorophenyl)-N′-hydroxyl-4-(((1-sulfamoylpyrrolidin-3-yl)methyl)amino)-1,2,5-oxadiazole-3-formamidine]	59
NS(=O)(=O)N1CCC(O)(CNc2nonc2C(=NO)Nc2ccc(F)c(Br)c2)C1 (centres unmarked) [Compound 151]	101
NS(=O)(=O)N1CCCC1CNc1nonc1/C(=N/O)Nc1ccc(F)c(Br)c1 (centres unmarked) [Compound 13, N-(3-Bromo-4-fluorophenyl)-N′-hydroxyl-4-(((1-sulfamoylazacyclopentan-2-yl)methyl)amino)-1,2,5-oxadiazole-3-formamidine]	214
